PubChem BioAssay AID2060623 (Molecular Pharmacology Branch, DTP, NCI, 2025)

System: 227483-062-R1-J1-PDC complex spheroids with HUVEC/MSC, viability
Assay: Anticancer human tumor 227483-062-R1-J1-PDC patient-derived pancreatic carcinoma cell line growth inhibition [CLK]
Settings: for IC50: curve of first compound; for viability, T/C: stronger effect = lower value
Summary of the method: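 Multi-cell-type spheroids combined patient-derived tumor cells with HUVEC endothelial cells and human mesenchymal stem cells. Paired agents were dosed in half-log steps down from about clinical Cmax, or from 10 microM where Cmax was unknown.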

[1] = second compound 0.0316 µM, first compound 0.0316 µM
[2] = second compound 0.0316 µM, first compound 0.1 µM
[3] = second compound 0.0316 µM, first compound 0.316 µM
[4] = second compound 0.0316 µM, first compound 1 µM
[5] = second compound 0.0316 µM, first compound 3.16 µM
[6] = second compound 0.0316 µM, first compound 10 µM
[7] = second compound 0.1 µM, first compound 0.0316 µM
[8] = second compound 0.1 µM, first compound 0.1 µM
[9] = second compound 0.1 µM, first compound 0.316 µM
[10] = second compound 0.1 µM, first compound 1 µM
[11] = second compound 0.1 µM, first compound 3.16 µM
[12] = second compound 0.1 µM, first compound 10 µM
[13] = second compound 0.316 µM, first compound 0.0316 µM
[14] = second compound 0.316 µM, first compound 0.1 µM
[15] = second compound 0.316 µM, first compound 0.316 µM
[16] = second compound 0.316 µM, first compound 1 µM
[17] = second compound 0.316 µM, first compound 3.16 µM
[18] = second compound 0.316 µM, first compound 10 µM
[19] = second compound 1 µM, first compound 0.0316 µM
[20] = second compound 1 µM, first compound 0.1 µM
[21] = second compound 1 µM, first compound 0.316 µM
[22] = second compound 1 µM, first compound 1 µM
[23] = second compound 1 µM, first compound 3.16 µM
[24] = second compound 1 µM, first compound 10 µM
[25] = second compound 3.16 µM, first compound 0.0316 µM
[26] = second compound 3.16 µM, first compound 0.1 µM
[27] = second compound 3.16 µM, first compound 0.316 µM
[28] = second compound 3.16 µM, first compound 1 µM
[29] = second compound 3.16 µM, first compound 3.16 µM
[30] = second compound 3.16 µM, first compound 10 µM
[31] = second compound 10 µM, first compound 0.0316 µM
[32] = second compound 10 µM, first compound 0.1 µM
[33] = second compound 10 µM, first compound 0.316 µM
[34] = second compound 10 µM, first compound 1 µM
[35] = second compound 10 µM, first compound 3.16 µM
[36] = second compound 10 µM, first compound 10 µM
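Note: spheroids exposed to compounds for seven days before readout.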
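Throughout, for viability, T/C: percent of DMSO vehicle control luminescence as 100% viability.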

COc1ccc([C@@H](O)c2cc(-c3ncnc4cc(N5CCOCC5)ccc34)c(F)cc2Cl)nn1 + CN1CCN(c2cc(C(=O)Nc3cc4cc(-c5cnn(C)c5)ccc4cn3)ccn2)CC1
IC50 (second compound 0.0316 µM): > 10000 nM
IC50 (second compound 0.1 µM): > 10000 nM
IC50 (second compound 0.316 µM): < 31.6 nM
IC50 (second compound 1 µM): < 31.6 nM
IC50 (second compound 3.16 µM): < 31.6 nM
IC50 (second compound 10 µM): < 31.6 nM
viability, T/C [1]: 95.2%
viability, T/C [2]: 107%
viability, T/C [3]: 115%
viability, T/C [4]: 99%
viability, T/C [5]: 75.7%
viability, T/C [6]: 66.6%
viability, T/C [7]: 60.8%
viability, T/C [8]: 69.8%
viability, T/C [9]: 54.1%
viability, T/C [10]: 73.5%
viability, T/C [11]: 66.2%
viability, T/C [12]: 48.8%
viability, T/C [13]: 5.56%
viability, T/C [14]: 4.19%
viability, T/C [15]: 4.12%
viability, T/C [16]: 4.66%
viability, T/C [17]: 5.44%
viability, T/C [18]: 3.88%
viability, T/C [19]: 1.55%
viability, T/C [20]: 3.72%
viability, T/C [21]: 3.44%
viability, T/C [22]: 2.14%
viability, T/C [23]: 2.19%
viability, T/C [24]: 1.68%
viability, T/C [25]: 5.54%
viability, T/C [26]: 3.34%
viability, T/C [27]: 3.99%
viability, T/C [28]: 3.31%
viability, T/C [29]: 3.4%
viability, T/C [30]: 2.14%
viability, T/C [31]: 2.64%
viability, T/C [32]: 1.93%
viability, T/C [33]: 2.01%
viability, T/C [34]: 1.95%
viability, T/C [35]: 1.9%
viability, T/C [36]: 1.68%

CCCS(=O)(=O)Nc1ccc(F)c(C(=O)c2c[nH]c3ncc(-c4ccc(Cl)cc4)cc23)c1F + CNC(=O)c1ccc(Nc2nc(OC3CCCC3)c3c(-c4ccc5nc(C)oc5c4)c[nH]c3n2)c(OC)c1
IC50 (second compound 0.0316 µM): > 10000 nM
IC50 (second compound 0.1 µM): > 10000 nM
IC50 (second compound 0.316 µM): 9220 nM
IC50 (second compound 1 µM): 7060 nM
IC50 (second compound 3.16 µM): 241 nM
IC50 (second compound 10 µM): < 31.6 nM
viability, T/C [1]: 87.8%
viability, T/C [2]: 94%
viability, T/C [3]: 96.5%
viability, T/C [4]: 101%
viability, T/C [5]: 105%
viability, T/C [6]: 66.2%
viability, T/C [7]: 102%
viability, T/C [8]: 101%
viability, T/C [9]: 107%
viability, T/C [10]: 108%
viability, T/C [11]: 114%
viability, T/C [12]: 56.2%
viability, T/C [13]: 78.2%
viability, T/C [14]: 93.2%
viability, T/C [15]: 96%
viability, T/C [16]: 118%
viability, T/C [17]: 126%
viability, T/C [18]: 46%
viability, T/C [19]: 64.7%
viability, T/C [20]: 80%
viability, T/C [21]: 84.1%
viability, T/C [22]: 85.7%
viability, T/C [23]: 85.8%
viability, T/C [24]: 36.9%
viability, T/C [25]: 53.1%
viability, T/C [26]: 52.6%
viability, T/C [27]: 49.6%
viability, T/C [28]: 36.1%
viability, T/C [29]: 28.1%
viability, T/C [30]: 24.7%
viability, T/C [31]: 39%
viability, T/C [32]: 40.2%
viability, T/C [33]: 45.1%
viability, T/C [34]: 35.5%
viability, T/C [35]: 33.5%
viability, T/C [36]: 24.3%

COC1C=CCC(C)C(C)S(=O)(=O)NC(=O)c2ccc3c(c2)N(CC2CCC21)CC1(CCCc2cc(Cl)ccc21)CO3 (stereo unspecified) + CNC(=O)c1ccc(Nc2nc(OC3CCCC3)c3c(-c4ccc5nc(C)oc5c4)c[nH]c3n2)c(OC)c1
IC50 (second compound 0.0316 µM): 6020 nM
IC50 (second compound 0.1 µM): 3740 nM
IC50 (second compound 0.316 µM): 897 nM
IC50 (second compound 1 µM): 207 nM
IC50 (second compound 3.16 µM): 46.2 nM
IC50 (second compound 10 µM): < 31.6 nM
viability, T/C [1]: 84%
viability, T/C [2]: 94.8%
viability, T/C [3]: 106%
viability, T/C [4]: 81.1%
viability, T/C [5]: 88.3%
viability, T/C [6]: 20.1%
viability, T/C [7]: 78.6%
viability, T/C [8]: 88.7%
viability, T/C [9]: 77.4%
viability, T/C [10]: 64.7%
viability, T/C [11]: 59.7%
viability, T/C [12]: 17.8%
viability, T/C [13]: 94%
viability, T/C [14]: 76.3%
viability, T/C [15]: 76.6%
viability, T/C [16]: 43.2%
viability, T/C [17]: 30%
viability, T/C [18]: 14.6%
viability, T/C [19]: 75%
viability, T/C [20]: 58.7%
viability, T/C [21]: 45.9%
viability, T/C [22]: 28%
viability, T/C [23]: 16.7%
viability, T/C [24]: 10.8%
viability, T/C [25]: 54%
viability, T/C [26]: 41.2%
viability, T/C [27]: 33%
viability, T/C [28]: 17.7%
viability, T/C [29]: 9.9%
viability, T/C [30]: 8.25%
viability, T/C [31]: 38.7%
viability, T/C [32]: 34.4%
viability, T/C [33]: 25.8%
viability, T/C [34]: 14.4%
viability, T/C [35]: 9.05%
viability, T/C [36]: 9.22%
